Test results as given in patent EP2769738B1, “Conjugated TLR7 and/or TLR8 and TLR2 polycationic agonists” (Invivogen, priority 2013, dated 2014).
Values joined by “and” are separate entries in the source; they are usually repeats but may differ in a detail not shown here. Equal entries are not always repeated.

Assay: Determination of nanoparticle (lipoplex) size by dynamic light scattering
Type: physicochemical
Conditions: ratio 3:24 (w:w); for Conformity (C)/ Non-conformity (NC) / Mean Diameter (nm): complexes with pDNA; for Mean Diameter (nm): dynamic light scattering at 25°C; for Mean Diameter (nm) / PDI: triplicate measurements; for PDI: polydispersity index of complexes with pDNA, 25°C
Method: • 1. Preparative HPLC Method: Unless otherwise indicated, the compounds described herein were purified by RP-MPLC ARMEN® Spot Flash Liquid Chromatography (ARMEN Instrument, Saint Ave, France) on a preparative column (SVF D26) packed with 25-40 µm C18 resin (Merck chimie SAS), by applying a linear gradient of 0-10% MeCN in NH4OAc (10 mM) solution (pH = 9) over 60 min at a 15 mL/min flow rate. The purification was monitored at 254 nm. Suitable fractions were pooled and lyophilised. • 2. Proton NMR Spectra: Unless otherwise indicated, all ^1H NMR spectra were run on a Bruker series 300 MHz instrument. Where so characterized, all observed protons are reported as parts-per-million (ppm) downfield from tetramethylsilane (TMS) or other internal reference in the appropriate solvent indicated. NMR spectra were recorded on a Brucker 300 spectrometer. For ^1H (300 MHz) spectra δ values were referenced to CDCI3-d1 (7.26 ppm), DMSO- d6 (2.50 ppm), D2O-d2 (4.79 ppm) or MeOD-d4 (3.31 ppm). The peak patterns are indicated as follows: s: singlet, sl: large singlet, d: doublet, t: triplet, q: quartet, m: multiplet. • 3. Mass Spectra (MS): Analyses were run on an Agilent Model 6130 quadrupole MS. Unless otherwise indicated, all mass spectral data for starting materials, intermediates and/or exemplary compounds are reported as mass/charge (m/z), having an (M+H)^+ molecular ion. The molecular ion reported was obtained by electrospray detection method (commonly referred to as an ESI MS). Compounds having an isotopic atom, such as bromine and the like, are generally reported according to the detected isotopic pattern, as appreciated by those skilled in the art. • 4. Particle size: Particle size was determined using a Malvern Nanosizer (Malvern, Worcestershire, UK) and Malvern ZETASIZER.RTM. (Malvern, Worcestershire, UK). • 5. Naming Convention The compounds disclosed and described herein have been named using the naming convention provided with Chem-Draw Ultra 11.0 software, available in Chem. Office. In some instances, compounds were named with the term "spermine" inserted where appropriate. For example, where the spermine is substituted with Boc, "N1,N5,N10-TriBoc-spermine" is added to the Chem-Draw nomenclature in the appropriate place. Chem-Draw utilizes the ISIS Draw software compound naming convention, as appreciated by those skilled in the art.
For pDNA:TLR7-TLR2 polyamine molecules complexes, a ratio pDNA:TLR7-TLR2 polyamine molecules of 3:24 (w:w) was prepared in serum-free culture medium or in 5% glucose. The TLR7-TLR2 conjugated compound of interest was prediluted in serum-free culture medium or in 5% glucose and incubated for 5 minutes at room temperature, prior to the addition of an endotoxin-free, salt-free preparation of pDNA. In these experiments, the pBsr2pCpGLacZh plasmid was used in the pDNA:TLR7-TLR2 polyamine molecule complexes. The pDNA:TLR7-TLR2 polyamine molecule mixtures were incubated at room temperature for 30 minutes to allow the formation of the complex. The control used in these experiments was the cationic lipid transfection agent LyoVec™ (InvivoGen) prepared in a similar manner.
In order to confirm that TLR7-TLR2 polyamine molecules complex DNA, lipoplex size was determined. The physical characterization of complex was achieved by dynamic light scattering using the analytical equipment for laser diffraction Zetasizer Nano-ZS (Malvern). pDNA:TLR7-TLR2 polyamine molecule complexes were prepared as described above. Subsequently, 50µl of pDNA: TLR7-TLR2 polyamine molecule complexes were placed into a disposable sizing cuvette and measurements were made under conditions defined according to manufacturer's instructions. The measurements were made at 25°C in triplicate and a size distribution report was obtained. […]

Structure (SMILES) | Conformity (C)/ Non-conformity (NC) | Mean Diameter (nm) | PDI
CCCCCCCCCCCCCCCC(=O)OCC(CSC[C@H](N)C(=O)N[C@@H](CO)C(=O)N[C@@H](CCCCN)C(=O)N[C@@H](CCCCNC(=O)c1ccc(Cn2c(O)nc3c(N)nc(NCCCC)nc32)cc1)C(=O)N[C@@H](CCCCN)C(=O)N[C@@H](CCCCN)C(=O)O)OC(=O)CCCCCCCCCCCCCCC (stereo partly drawn) [CL531, (2S,5S,8S,11S,14S,17R)-17-amino-8-(4-(4-((6-amino-2-(butylamino)-8-hydroxy-9H-purin-9-yl)methyl)benzamido)butyl)-2,5,11-tris(4-aminobutyl)-14-(hydroxymethyl) -4,7,10,13,16,24-hexaoxo-21-(palmitoyloxy)-23-oxa-19-thia-3,6,9,12,15-pentaaza nonatriacontan-1-oic acid] | C (ranged between 140 and 200 nm in diameter were considered to show conformity) | 145,0 nm and 143,8 nm and 140,1 nm | 0,144 and 0,153 and 0,138
CCCCCCCCCCCCCCCC(=O)N[C@@H](CSCC(COC(=O)CCCCCCCCCCCCCCC)OC(=O)CCCCCCCCCCCCCCC)C(=O)N[C@@H](CO)C(=O)N[C@@H](CCCCNC(=O)c1ccc(Cn2c(O)nc3c(N)nc(NCCCC)nc32)cc1)C(=O)N[C@@H](CCCCN)C(=O)N[C@@H](CCCCN)C(=O)N[C@@H](CCCCN)C(=O)O (stereo partly drawn) [CL537, (2S,5S,8S,11S,14S,17R)-11-(4-(4-((6-amino-2-(butylamino)-8-hydroxy-9H-purin-9-yl)methyl)benzamido)butyl)-2,5,8-tris(4-aminobutyl)-14-(hydroxymethyl)-4,7,10, 13,16,24-hexaoxo-17-palmitamido-21-(palmitoyloxy)-23-oxa-19-thia-3,6,9,12,15-pentaazanonatria contan-1-oic acid] | NC (larger sizes were considered to show aggregates or non-conformity) | 198,1 nm and 203,5 nm and 219,3 nm | 0,704 and 0,618 and 0,626
CCCCCCCCCCCCCCCC(=O)OCC(CSC[C@H](N)C(=O)N[C@@H](CO)C(=O)N[C@@H](CCCCNC(=O)c1ccc(Cn2c(O)nc3c(N)nc(NCCCC)nc32)cc1)C(=O)N[C@@H](CCCCN)C(=O)N[C@@H](CCCCN)C(=O)N[C@@H](CCCCN)C(=O)O)OC(=O)CCCCCCCCCCCCCCC (stereo partly drawn) [CL533, (2S,5S,8S,11S,14S,17R)-17-amino-11-(4-(4-((6-amino-2-(butylamino)-8-hydroxy-9H-purin-9-yl)methyl)benzamido)butyl)-2,5,8-tris(4-aminobutyl)-14-(hydroxylmethyl)-4,7,10,13,16,24-hexaoxo-21-(palmitoyloxy)-23-oxa-19-thia-3,6,9,12,15-pentaazanonatria contan-1-oic acid] | C (ranged between 140 and 200 nm in diameter were considered to show conformity) | 140,4 nm and 149,8 nm and 141,5 nm | 0,195 and 0,198 and 0,185
CCCCCCCCCCCCCCCC(=O)N[C@@H](CSCC(COC(=O)CCCCCCCCCCCCCCC)OC(=O)CCCCCCCCCCCCCCC)C(=O)N[C@@H](CO)C(=O)N[C@@H](CCCCN)C(=O)N[C@@H](CCCCN)C(=O)N[C@@H](CCCCNC(=O)c1ccc(Cn2c(O)nc3c(N)nc(NCCCC)nc32)cc1)C(=O)N[C@@H](CCCCN)C(=O)O (stereo partly drawn) [CL535, (2S,5S,8S,11S,14S,17R)-5-(4-(4-((6-amino-2-(butylamino)-8-hydroxy-9H-purin-9-yl)methyl)benzamido)butyl)-2,8,11-tris(4-aminobutyl)-14-(hydroxymethyl)-4,7,10, 13,16,24-hexaoxo-17-palmitamido-21-(palmitoyloxy)-23-oxa-19-thia-3,6,9,12,15-pentaazanonatriacontan-1-oic acid] | NC (larger sizes were considered to show aggregates or non-conformity) | 229,5 nm and 232,3 nm and 226,8 nm | 0,351 and 0,336 and 0,396
CCCCCCCCCCCCCCCC(=O)N[C@@H](CSCC(COC(=O)CCCCCCCCCCCCCCC)OC(=O)CCCCCCCCCCCCCCC)C(=O)N[C@@H](CO)C(=O)N[C@@H](CCCCN)C(=O)N[C@@H](CCCCNC(=O)c1ccc(Cn2c(O)nc3c(N)nc(NCCCC)nc32)cc1)C(=O)N[C@@H](CCCCN)C(=O)N[C@@H](CCCCN)C(=O)O (stereo partly drawn) [CL536, (2S,5S,8S,11S,14S,17R)-8-(4-(4-((6-amino-2-(butylamino)-8-hydroxy-9H-purin-9-yl)methyl)benzamido)butyl)-2,5,11-tris(4-aminobutyl)-14-(hydroxymethyl)-4,7,10, 13,16,24-hexaoxo-17-palmitamido-21-(palmitoyloxy)-23-oxa-19-thia-3,6,9,12,15-pentaazanonatriacontan-1-oic acid] | NC (larger sizes were considered to show aggregates or non-conformity) | 231,9 nm and 236,1 nm and 225,8 nm | 0,465 and 0,583 and 0,65
CCCCCCCCCCCCCCCC(=O)OCC(CSC[C@H](N)C(=O)N[C@@H](CO)C(=O)N[C@@H](CCCCN)C(=O)N[C@@H](CCCCN)C(=O)N[C@@H](CCCCNC(=O)c1ccc(Cn2c(O)nc3c(N)nc(NCCCC)nc32)cc1)C(=O)N[C@@H](CCCCN)C(=O)O)OC(=O)CCCCCCCCCCCCCCC (stereo partly drawn) [CL530, (2S,5S,8S,11S,14S,17R)-17-amino-5-(4-(4-((6-amino-2-(butylamino)-8-hydroxy-9H-purin-9-yl)methyl)benzamido)butyl)-2,8,11-tris(4-aminobutyl)-14-(hydroxymethyl) -4,7,10,13,16,24-hexaoxo-21-(palmitoyloxy)-23-oxa-19-thia-3,6,9,12,15-pentaaza nonatriacontan-1-oic acid] | NC (larger sizes were considered to show aggregates or non-conformity) | 188,0 nm and 187,6 nm and 213,1 nm | 0,332 and 0,351 and 0,315
